Source: article PMC7596085, “The pathogenic S688Y mutation in the ligand-binding domain of the GluN1 subunit regulates the properties of NMDA receptors” (Scientific Reports, 2020)
Where two headings read alike, the source gives them in different places.

What was measured:
[1] = system: hippocampal neurons expressing YFP-hGluN1-1a-S688Y; conditions: steady-state concentration-response, in the presence of 1 mM NMDA
[2] = system: hippocampal neurons expressing YFP-hGluN1-1a-S688Y; conditions: 10 µM glycine together with 100 µM NMDA
GluN1 S688A mutation = conditions: S688A mutation vs wild type; cited from earlier work
[3] = system: hippocampal neurons expressing YFP-hGluN1-1a; conditions: steady-state concentration-response, in the presence of 1 mM NMDA
[4] = system: hippocampal neurons expressing YFP-hGluN1-1a
hGluN1-4a-S688Y/hGluN3A = hGluN1-4a-S688Y/hGluN3A vs hGluN1-4a/hGluN3A, peak response
[5] = system: hippocampal neurons expressing YFP-hGluN1-1a-S688Y; test: NMDA-induced excitotoxicity, hippocampal neurons expressing YFP-hGluN1-1a-S688Y; type: cell-based, rat; conditions: 1 h treatment, measured 23 h later
Procedure: (§1) Excitotoxicity was measured 23 h after treatment by staining cells with the nuclear marker Hoechst 33,342 and then performing complex image analysis (Fig. 6a,b; see "Methods").
(§2) Excitotoxicity was induced as described previously. In brief, the cultured neurons were incubated overnight in 10% MEM (Thermo Fisher Scientific) and 90% salt-glucose (SG) medium containing 114 mM NaCl, 0.219% NaHCO3, 5.292 mM KCl, 1 mM MgCl2, 2 mM CaCl2, 10 mM HEPES, 30 mM glucose, […], and 0.1% phenol red. The following day, the media was replaced with 100% SG and the indicated concentrations of agonists/co-agonists were added to the neurons. […] Nuclear area was measured using ImageJ software (v. 1.52p), and custom-made macro scripts were used to automatically measure only the nuclei of infected cells (identified by YFP expression). […] The ratio of the number of cells in each group was then used to estimate the effects of mixing the two distributions and is expressed as the ratio of pyknotic and non-pyknotic cells. The percentage of pyknotic cells in each condition was then calculated as the number of cells classified as pyknotic divided by the total number of cells in that condition.

[6] = target: T1, hippocampal neurons expressing YFP-hGluN1-1a (Rattus norvegicus, UniProt P35439, I267L/M415L/N159S/R212K); test: NMDA-induced excitotoxicity, hippocampal neurons expressing YFP-hGluN1-1a; type: cell-based; conditions: 1 h treatment, measured 23 h later
T1 construct: expressed in transfected cells; host or cells: primary rat hippocampal neurons (E18 Wistar), lentiviral infection with shRNA knock-down of endogenous GluN1
Procedure: as §1, §2

[7] = 10 µM co-agonist in the presence of 100 µM NMDA

Row | Compound | EC50 [1] [µM] | Hill coefficient (h) [1] | EC50 ([1]; listed as Glycine) [µM] | intracellular Ca2+ (Fura-2 F340/F380) [2] | reduction in glycine potency (GluN1 S688A mutation) | EC50 [3] [µM] | Hill coefficient (h) [3] | EC50 ([3]; listed as Glycine) [µM] | intracellular Ca2+ (Fura-2 F340/F380) ([4]; 10 µM glycine together with 100 µM NMDA) | intracellular Ca2+ (Fura-2 F340/F380) ([4]; 1000 µM glycine together with 100 µM NMDA) | decrease in glycine potency compared to wild-type receptors (hGluN1-4a-S688Y/hGluN3A) | neuronal cell death (% of d.n., pyknotic nuclei) ([5]; 10 µM co-agonist alone) | neuronal cell death / excitotoxicity (% of d.n., pyknotic nuclei) [5, 7] | neuronal cell death (% of d.n., pyknotic nuclei) ([6]; 10 µM co-agonist alone) | neuronal cell death / excitotoxicity (% of d.n., pyknotic nuclei) [6, 7] [%]
1 | NCC(=O)O [glycine] | 220 | 0.82 ± 0.06 | 219 ± 6.11 | no measurable effect | four-fold | 0.2 | 1.15 ± 0.05 | 0.17 ± 0.02 | robust increase | robust increase | ~ twofold | – | – | – | –
2 | N[C@H](CO)C(=O)O [D-serine] | – | – | – | – | – | – | – | – | – | – | – | only a small degree of cell death | significantly reduced cell death | only a small degree of cell death | ~100
